Assay [1] has as its target 5-hydroxytryptamine receptor 5A (Homo sapiens, UniProt P47898). The assay can be described thus: Counterscreen for agonists of OPRM1-OPRD1 heterodimerization: luminescence-based cell-based high throughput dose response assay to identify agonists of 5-hydroxytryptamine (serotonin) 5A receptor (HTR5A). [Related pubchem assays (depositor defined):AID504326, AID504355, AID504692, AID504904, AID504905]. It counts as functional. (The purpose of a counterscreen is to sort out artefacts and off-target activity.)

Assay [2] addresses T1, Endoribonuclease toxin MazF (Escherichia coli K-12, UniProt P0AE70).
T1 sequence (P0AE70 whole entry): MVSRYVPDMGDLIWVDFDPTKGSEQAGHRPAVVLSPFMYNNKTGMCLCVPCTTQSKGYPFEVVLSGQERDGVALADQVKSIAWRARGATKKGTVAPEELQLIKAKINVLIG
The assay can be described thus: SAR analysis of small molecule activators of the MazEF TA System via a fluorescence-based single-stranded RNase assay counterscreen. [Related pubchem assays (depositor defined):AID504720, AID504743]. Format: functional.

The target in assay [3] is Glutathione-S-transferase (Schistosoma japonicum, UniProt Q26513). As to the kind of experiment: GST-antibody interaction or FRET quenching – biochemical, TR-FRET, artefact control for Vif-APOBEC3G degradation inhibitor project, dose response (AID 1117362). Format: functional. In general terms: TR-FRET usually uses a lanthanide donor and a delayed reading to cut background.
Chain of Glutathione-S-transferase (Q26513 whole entry): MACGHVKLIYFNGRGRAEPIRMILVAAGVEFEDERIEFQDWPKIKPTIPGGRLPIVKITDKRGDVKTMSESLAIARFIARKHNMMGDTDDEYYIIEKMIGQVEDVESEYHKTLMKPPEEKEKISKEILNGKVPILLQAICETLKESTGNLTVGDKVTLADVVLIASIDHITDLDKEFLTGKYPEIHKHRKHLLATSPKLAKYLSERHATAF

In assay [4] the target is T1, Endoribonuclease toxin MazF. As to the kind of experiment: MazEF toxin-antitoxin RNase activation – biochemical, fluorescence, single-stranded RNA substrate, SAR follow-up (AID 588603). It counts as functional.
The next assay in a line: cells. Format: functional.
In assay [5] the target is T2, Tyrosine-protein phosphatase non-receptor type 22 (Homo sapiens, UniProt Q9Y2R2).
T2 sequence (Q9Y2R2 whole entry): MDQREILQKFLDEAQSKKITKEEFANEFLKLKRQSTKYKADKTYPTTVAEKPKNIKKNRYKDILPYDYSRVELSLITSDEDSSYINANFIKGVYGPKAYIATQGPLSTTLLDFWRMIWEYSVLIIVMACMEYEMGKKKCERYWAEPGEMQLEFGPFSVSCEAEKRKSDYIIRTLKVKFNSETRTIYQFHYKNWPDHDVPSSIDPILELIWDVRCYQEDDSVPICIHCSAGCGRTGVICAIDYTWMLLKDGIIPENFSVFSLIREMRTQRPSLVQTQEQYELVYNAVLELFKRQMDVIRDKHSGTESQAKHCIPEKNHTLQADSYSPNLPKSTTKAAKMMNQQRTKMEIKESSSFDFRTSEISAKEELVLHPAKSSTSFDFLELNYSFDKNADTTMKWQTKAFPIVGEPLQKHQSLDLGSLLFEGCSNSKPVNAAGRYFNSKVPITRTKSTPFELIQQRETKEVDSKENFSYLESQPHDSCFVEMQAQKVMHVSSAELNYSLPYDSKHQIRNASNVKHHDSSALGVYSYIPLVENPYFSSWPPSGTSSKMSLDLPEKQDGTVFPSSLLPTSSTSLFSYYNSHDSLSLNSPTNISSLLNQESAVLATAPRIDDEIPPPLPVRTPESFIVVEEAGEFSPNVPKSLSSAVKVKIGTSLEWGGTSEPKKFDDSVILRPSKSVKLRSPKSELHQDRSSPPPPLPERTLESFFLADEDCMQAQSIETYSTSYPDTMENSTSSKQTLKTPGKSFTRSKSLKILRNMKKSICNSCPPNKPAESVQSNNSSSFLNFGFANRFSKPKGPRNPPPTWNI
It counts as functional.

Assay [6] concerns the target T2, Tyrosine-protein phosphatase non-receptor type 22. Format: functional. The source holds these as a separate data set.
Assay [7] addresses T3, Tyrosine-protein phosphatase non-receptor type 7 (Homo sapiens, UniProt P35236).
T3 sequence (P35236 whole entry): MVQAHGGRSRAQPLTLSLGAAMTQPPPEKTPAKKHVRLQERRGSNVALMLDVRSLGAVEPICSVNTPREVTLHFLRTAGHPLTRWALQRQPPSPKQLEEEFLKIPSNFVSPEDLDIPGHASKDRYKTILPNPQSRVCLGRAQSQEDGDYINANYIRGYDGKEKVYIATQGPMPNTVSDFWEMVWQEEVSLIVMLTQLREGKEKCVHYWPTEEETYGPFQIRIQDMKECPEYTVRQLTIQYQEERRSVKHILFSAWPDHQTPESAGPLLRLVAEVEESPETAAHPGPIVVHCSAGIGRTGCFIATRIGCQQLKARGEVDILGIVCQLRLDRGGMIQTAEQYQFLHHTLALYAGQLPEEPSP
Format: functional.

Assay [8] can be described thus: DRD fibroblast viability loss – cell-based, non-viral oncogenic, luminescence, dose response (AID 1934). The note with it: Homo sapiens. Format: functional.
A short description of assay [9]: Intein inhibitors as potential Tuberculosis drugs, a cytotoxicity screen. [Related pubchem assays (depositor defined):AID2221, AID2223, AID434968, AID435010, AID449749, AID449750, AID489010]. Format: functional.
Assay [10] in a line: HEK-293T viability loss after treatment – luminescence, T-cell screen hits, cytotoxicity control for TCR NF-kB inhibitor project, dose response (AID 489026).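 Further: cells exposed to compound about 14 hours before the viability readout.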 It counts as functional, cell-based.
Assay [11] addresses Dual specificity tyrosine-phosphorylation-regulated kinase 1A (Rattus norvegicus, UniProt Q63470). Format: biochemical, Homo sapiens.
The target in assay [12] is Lysine-specific demethylase 4C (Homo sapiens, UniProt Q9H3R0). As to the kind of experiment: inhibition of JMJD2C H3K9me3 demethylation – biochemical, DELFIA europium, cherry-picked samples, dose response (AID 488835). It counts as functional.
Chain of Lysine-specific demethylase 4C (Q9H3R0 whole entry): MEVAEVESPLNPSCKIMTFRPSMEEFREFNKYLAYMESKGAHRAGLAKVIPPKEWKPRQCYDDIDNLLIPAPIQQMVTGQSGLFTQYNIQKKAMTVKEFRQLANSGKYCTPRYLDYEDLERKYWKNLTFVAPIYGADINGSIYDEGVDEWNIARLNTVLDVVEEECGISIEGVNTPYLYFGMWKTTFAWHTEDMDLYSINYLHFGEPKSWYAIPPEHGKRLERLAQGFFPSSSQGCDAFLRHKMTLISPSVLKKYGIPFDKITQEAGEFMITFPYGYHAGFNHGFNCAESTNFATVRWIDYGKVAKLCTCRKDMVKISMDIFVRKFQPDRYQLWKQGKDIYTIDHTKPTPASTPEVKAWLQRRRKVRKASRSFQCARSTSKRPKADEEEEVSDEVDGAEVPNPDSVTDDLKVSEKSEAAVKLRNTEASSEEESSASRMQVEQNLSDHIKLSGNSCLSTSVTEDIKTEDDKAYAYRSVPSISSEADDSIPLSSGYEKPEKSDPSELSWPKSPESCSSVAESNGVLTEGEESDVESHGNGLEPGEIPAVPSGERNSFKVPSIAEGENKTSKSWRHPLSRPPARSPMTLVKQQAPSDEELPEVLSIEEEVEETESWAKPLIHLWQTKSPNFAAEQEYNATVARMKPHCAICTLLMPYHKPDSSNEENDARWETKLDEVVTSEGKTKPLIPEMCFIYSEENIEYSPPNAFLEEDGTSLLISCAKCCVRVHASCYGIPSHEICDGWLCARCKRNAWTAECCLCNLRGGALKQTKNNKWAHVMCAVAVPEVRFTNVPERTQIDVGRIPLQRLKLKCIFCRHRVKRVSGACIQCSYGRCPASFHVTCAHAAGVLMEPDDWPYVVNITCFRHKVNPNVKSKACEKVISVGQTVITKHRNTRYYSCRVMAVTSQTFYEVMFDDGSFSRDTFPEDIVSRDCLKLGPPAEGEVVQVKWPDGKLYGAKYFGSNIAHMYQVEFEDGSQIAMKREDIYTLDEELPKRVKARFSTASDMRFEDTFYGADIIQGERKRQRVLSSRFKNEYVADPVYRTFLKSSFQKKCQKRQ
In assay [13] the target is Mothers against decapentaplegic homolog 3 (Homo sapiens, UniProt P84022). The assay can be described thus: inhibitors of SMAD-driven TGF-beta signaling – dose response (AID 715). Format: functional.
Chain of Mothers against decapentaplegic homolog 3 (P84022 whole entry): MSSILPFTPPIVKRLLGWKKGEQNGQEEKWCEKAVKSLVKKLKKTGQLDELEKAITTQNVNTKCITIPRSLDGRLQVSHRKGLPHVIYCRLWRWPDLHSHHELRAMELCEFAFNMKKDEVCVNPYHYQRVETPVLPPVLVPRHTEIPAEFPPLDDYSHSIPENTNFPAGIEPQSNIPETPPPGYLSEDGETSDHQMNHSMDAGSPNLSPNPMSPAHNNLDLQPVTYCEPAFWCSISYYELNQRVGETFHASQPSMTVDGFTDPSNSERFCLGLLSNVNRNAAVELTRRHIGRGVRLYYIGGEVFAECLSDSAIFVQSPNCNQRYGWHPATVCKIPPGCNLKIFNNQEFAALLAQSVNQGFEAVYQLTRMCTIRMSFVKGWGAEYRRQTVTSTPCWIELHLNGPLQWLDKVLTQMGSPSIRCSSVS
Assay [14] in a line: alpha-synuclein stem-loop luciferase translation blockers – H4 neuroglioma cells, luminescence, confirmation (AID 1988). It counts as functional, cell-based.

Calls of active or inactive are those of the source. A value given as a limit tells only on which side of the number the result lay.

What is called EC50 is the concentration giving half of the maximal effect. For orientation: IC50 means the point on the concentration scale where inhibition reaches its midpoint. What is called CC50 is the concentration giving 50% cytotoxicity. The AC50 is the concentration at which the activity in the assay is half-maximal.
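Wherever CC50 is given: cells exposed to compound for 72 hours before luminescence readout.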

Chain of 5-hydroxytryptamine receptor 5A (P47898 whole entry): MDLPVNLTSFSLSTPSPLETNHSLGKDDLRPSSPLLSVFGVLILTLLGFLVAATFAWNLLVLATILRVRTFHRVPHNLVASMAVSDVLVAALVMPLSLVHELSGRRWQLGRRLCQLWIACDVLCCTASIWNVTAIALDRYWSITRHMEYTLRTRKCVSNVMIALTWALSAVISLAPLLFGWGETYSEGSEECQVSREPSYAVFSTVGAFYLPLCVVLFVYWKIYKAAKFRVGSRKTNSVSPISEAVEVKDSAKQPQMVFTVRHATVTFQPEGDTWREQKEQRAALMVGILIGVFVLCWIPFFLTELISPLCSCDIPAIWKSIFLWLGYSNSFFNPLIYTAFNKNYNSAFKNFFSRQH

As for `O=C1C=C(c2c(O)ccc3ccccc23)c2ccccc2C1=O`, the figures for the EC50 in assay [1], in assay [2] and in assay [4] were > 92400 nM (inactive), > 99000 nM (inactive) and > 99000 nM (inactive), respectively. Besides, the IC50 in assay [3] was > 100000 nM (active).
For the compound `Cc1nc2c(=O)n(C)c(=O)nc-2n(C)n1`, the IC50 is 2270 nM (active) in “cells”; < 1240 nM (active) in assay [5]; < 1240 nM (active) in assay [6]; < 1240 nM (active) in [7]; 9410 nM (active) in [10]; 38 nM (active) in assay [13]. The concentration giving a half-maximal response (EC50) in assay [8] was 4390 nM (active); in assay [14], 136 nM (active). Further, the CC50 in [9] was 7940 nM (active). The concentration at half-maximal activity (AC50) in assay [11] is 215 nM (active); in assay [12], 425 nM (active).

Values taken from ChEMBL document CHEMBL1201862, “PubChem BioAssay data set” (2004).
